Where two headings read alike, the source gives them in different places. One block for each compound: values may come before it.
What was measured:
[1] = IV pharmacokinetics in male SD rats; type: in vivo, rat; conditions: for clearance: male, Sprague-Dawley, rat, plasma, iv
Experimental: Pharmacokinetic parameters of some examples were evaluated in male Sprague Dawley (SD) rats after intravenous (IV) and oral (PO) dosing. Male SD rats (5-6 weeks of age) were fasted for 12 hours before administration of the compound of interest. Animals were allowed access to food 2 h after dosing and water was given ad libitum. Except for the compound of Example 13, pharmacokinetic experiments comparing deuterium containing and non-deuterium containing compounds were performed at the same time using the same cohort of animals. The pharmacokinetic properties of the compound of Example 13 were evaluated separately and compared to previously generated data.
For IV dosing, a 0.5 mg/mL solution of the test compound was prepared in a vehicle consisting of 5% DMSO, 5% Cremophore, 90% normal saline. For a 1 mpk dose, 2 mL/kg of this dosing vehicle was administered to each rat by bolus injection into the tail vein. For lower doses, the dosing solution was diluted with the appropriate amount of vehicle. Example 3 was evaluated at 3 mpk by preparing a 1.5 mg/mL solution in the same vehicle and dosing 2 mL/kg. Blood samples from each animal was collected in di-sodium EDTA coated containers at 0.12, 0.25, 0.5, 1.0, 2.0, 4.0, 8.0 and 24.0 hours after dosing. Plasma was separated from the blood samples within 15 minutes following collection and stored at −20±5° C. before analysis.
A standard curve was generated from a stock solution of the test compound with known concentration in methanol. Working solutions having known concentrations ranging from 5-20,000 ng/mL were prepared from the stock solution by dilution with methanol:water (80:20 v/v). 5 uL of the working solutions were added to 45 uL of blank rat plasma to provide standard samples for analysis.
Plasma samples collected from rats after dosing were allowed to reach room temperature. A 50 uL aliquot of each plasma sample and the standard curve plasma samples were treated with 200 uL of acetonitrile containing an internal standard (100 ng/mL; warfarin/diclofenac) and mixed well. The samples were vortexed for 5 minutes followed by centrifugation for 5 minutes at 14000 rpm at 4° C. The supernatant (10 uL) was analyzed by LC-MS/MS (LC: Shimadzu SIL HTc, MS: MDS Sciex API-5500 & 4000 using 75%/25% acetonitrile/0.2% formic acid in Milli-Q water, flow rate: 1.0 mL/min, run time 3 minutes, Atlantis dC18(50×4.6 mm, 3 um; Waters®)) and the concentrations of the test compound in the plasma samples collected from rats at each time point were determined by comparison to the standard curve samples.
Pharmacokinetic parameters were calculated from the plasma concentrations at each time point using Phoenix WinNonlin (Version 7.0) by the non-compartmental analysis (NCA) method. Clearance values are reported as mL/min/kg. AUC values are reported as ng·h/mL.

monkey hepatocytes = assay: In vitro metabolite profile in monkey hepatocytes; type: in vitro ADME; set-up: key to UV % at 280-290 nm or observed (+ or --), metabolite M387 (O-dealkylation) / UV % at 280-290 nm or observed (+ or --), metabolite M532b (Hydroxylation) / UV % at 280-290 nm or observed (+ or --), metabolite M532c (Hydroxylation) / UV % at 280-290 nm or observed (+ or --), metabolite M532d (Hydroxylation) / UV % at 280-290 nm or observed (+ or --), metabolite M563 (O-dealkylation + Glucuronidation) / UV % at 280-290 nm or observed (+ or --), metabolite M530b (Hydroxylation) / UV % at 280-290 nm or observed (+ or --), metabolite M530c (Hydroxylation) / UV % at 280-290 nm or observed (+ or --), metabolite M530d (Hydroxylation): +: only detected by MS; --: not detected or trace; conditions: 10 μM; for UV % at 280-290 nm, Parent-T0 min: T0 min (normalized as 100%)
Experimental: (§1) Briefly, each test compound (final concentration of 10 μM containing 0.1% DMSO) was incubated with rat, dog, minipig, monkey, or human hepatocytes (final viable cell density of 1×10^6 cells/mL) at 37° C. with 5% CO2 in HI hepatocyte maintenance media (BIOIVT; Catalog #Z99009) for 120 minutes. Reactions were initiated by combining 200 μL of pre-warmed 2× dosing solution containing 20 μM test compound and 0.2% DMSO in HI maintenance media with 200 μL of pre-warmed hepatocyte solution containing 2×10^6 cells/mL in HI maintenance media. Samples were taken at 0 minutes (T0) and 120 minutes (T120) by quenching the reaction with 1200 μL acetonitrile. After quenching, the samples were sonicated for 2 minutes and then centrifuged at 1400 rpm for 5 minutes. A 1400-μL aliquot of the supernatant was evaporated under a stream of N2 until dry. The dried extracts were then reconstituted with 200 μL acetonitrile: H2O (1:3 v/v), vortexed for 2 minutes and centrifuged at 14000 rpm for 5 minutes. A 2-μL aliquot of the supernatant was injected onto a Xevo UPLC-UV-G2-S Q-Tof system (Waters®) with positive-ion electrospray ionization for analysis. Chromatographic separation was achieved on an Acquity UPLC®BEH C18 column (2.1×50 mm, 1.7 μm; Waters®) by gradient elution using varying proportions of mobile phase A (H2O with 0.1% formic acid) and mobile phase B (acetonitrile with 0.1% formic acid) at a constant flow rate of 400 μL/minute over a total run time of 10 minutes. LC-UV-MS extract ion chromatograms (EIC) of the T120 samples were compared to the T0 samples to identify the major putative metabolites which were named as Mm/z.

rat hepatocytes = assay: In vitro metabolite profile in rat hepatocytes; type: in vitro ADME; set-up: key to UV % at 280-290 nm or observed (+ or --), metabolite M532b (Hydroxylation) / UV % at 280-290 nm or observed (+ or --), metabolite M532d (Hydroxylation) / UV % at 280-290 nm or observed (+ or --), metabolite M532e (Hydroxylation) / UV % at 280-290 nm or observed (+ or --), metabolite M530b (Hydroxylation) / UV % at 280-290 nm or observed (+ or --), metabolite M530d (Hydroxylation) / UV % at 280-290 nm or observed (+ or --), metabolite M530e (Hydroxylation): +: only detected by MS; --: not detected or trace; conditions: 10 μM; for UV % at 280-290 nm, Parent-T0 min: T0 min (normalized as 100%)
Experimental: as §1

[2] = 120 min, relative to parent at T0

IV clearance 0.1 mpk ([1]; IV 0.1 mpk, ± one standard deviation): 24 ± 4 mL/min/kg | IV clearance 0.3 mpk ([1]; IV 0.3 mpk, ± one standard deviation): 23 ± 7 mL/min/kg | IV clearance 1 mpk ([1]; IV 1 mpk, ± one standard deviation): 24 ± 5 mL/min/kg | UV % at 280-290 nm or observed (+ or --), metabolite M387 (O-dealkylation) (monkey hepatocytes; [2]): 4.8% | UV % at 280-290 nm or observed (+ or --), metabolite M530b (Hydroxylation) (monkey hepatocytes; [2]): -- | UV % at 280-290 nm or observed (+ or --), metabolite M530c (Hydroxylation) (monkey hepatocytes; [2]): + | UV % at 280-290 nm or observed (+ or --), metabolite M530e (Hydroxylation) (monkey hepatocytes; [2]): 1.5% | UV % at 280-290 nm or observed (+ or --), metabolite M563 (O-dealkylation + Glucuronidation) (monkey hepatocytes; [2]): + | UV % at 280-290 nm or observed (+ or --), metabolite M530d (Hydroxylation) (monkey hepatocytes; [2]): -- | UV % at 280-290 nm, Parent-T120 min (monkey hepatocytes; [2]): 85.7% | UV % at 280-290 nm, Parent-T0 min (monkey hepatocytes): 100.0% | UV % at 280-290 nm or observed (+ or --), metabolite M387 (O-dealkylation) (rat hepatocytes; [2]): 16.2% | UV % at 280-290 nm or observed (+ or --), metabolite M530b (Hydroxylation) (rat hepatocytes; [2]): + | UV % at 280-290 nm or observed (+ or --), metabolite M530c (Hydroxylation) (rat hepatocytes; [2]): 1.1% | UV % at 280-290 nm or observed (+ or --), metabolite M530e (Hydroxylation) (rat hepatocytes; [2]): + | UV % at 280-290 nm or observed (+ or --), metabolite M563 (O-dealkylation + Glucuronidation) (rat hepatocytes; [2]): 1.06% | UV % at 280-290 nm or observed (+ or --), metabolite M530d (Hydroxylation) (rat hepatocytes; [2]): -- | UV % at 280-290 nm, Parent-T120 min (rat hepatocytes; [2]): 82.7% | UV % at 280-290 nm, Parent-T0 min (rat hepatocytes): 100.0%
SMILES: Cc1cnc(-c2ccnc(C(C)(C)O)n2)cc1-n1c(C)cc(OCc2ncc(F)cc2F)c(Cl)c1=O (atropisomer, axis not shown; (P)) [Example 1-H2, (P)-3-chloro-4-((3,5-difluoropyridin-2-yl)methoxy)-2′-(2-(2-hydroxypropan-2-yl)pyrimidin-4-yl)-5′,6-dimethyl-2H-[1,4′-bipyridin]-2-one]

clearance ([1]; 0.1 mg/kg, IV 0.1 mpk, ± one standard deviation, read-out: IV clearance 0.1 mpk): 16 ± 4 mL/min/kg | clearance ([1]; 0.3 mg/kg, IV 0.3 mpk, ± one standard deviation, read-out: IV clearance 0.3 mpk): 12 ± 3 mL/min/kg | clearance ([1]; 1 mg/kg, IV 1 mpk, ± one standard deviation, read-out: IV clearance 1 mpk): 9.5 mL/min/kg | UV % at 280-290 nm or observed (+ or --), metabolite M387 (O-dealkylation) (monkey hepatocytes; [2]): + | UV % at 280-290 nm or observed (+ or --), metabolite M532b (Hydroxylation) (monkey hepatocytes; [2]): -- | UV % at 280-290 nm or observed (+ or --), metabolite M532c (Hydroxylation) (monkey hepatocytes; [2]): + | UV % at 280-290 nm or observed (+ or --), metabolite M532d (Hydroxylation) (monkey hepatocytes; [2]): + | UV % at 280-290 nm, Parent-T120 min (monkey hepatocytes; [2]): 96.6% | UV % at 280-290 nm, Parent-T0 min (monkey hepatocytes): 100.0% | UV % at 280-290 nm or observed (+ or --), metabolite M532b (Hydroxylation) (rat hepatocytes; [2]): -- | UV % at 280-290 nm or observed (+ or --), metabolite M532e (Hydroxylation) (rat hepatocytes; [2]): + | UV % at 280-290 nm or observed (+ or --), metabolite M532d (Hydroxylation) (rat hepatocytes; [2]): -- | UV % at 280-290 nm, Parent-T120 min (rat hepatocytes; [2]): 84.3% | UV % at 280-290 nm, Parent-T0 min (rat hepatocytes): 100.0%
SMILES: [2H]C([2H])(Oc1cc(C)n(-c2cc(-c3ccnc(C(C)(C)O)n3)ncc2C)c(=O)c1Cl)c1ncc(F)cc1F (single isomer, unassigned) [Example 1-D2, (P)-3-Chloro-4-((3,5-difluoropyridin-2-yl)methoxy-d2)-2′-(2-(2-hydroxypropan-2-yl)pyrimidin-4-yl)-5′,6-dimethyl-2H-[1,4′-bipyridin]-2-one]
effect of deuterium substitution on clearance ([1]; IV, versus non-deuterated comparator Example 1-H2): clear and consistent reduction in clearance

Reference: US12403141B2, “Deuterated MK2 pathway inhibitors and methods of using the same” (ACLARIS THERAPEUTICS, INC., priority 2019, dated 2025)
